According to US4576956A, “Iodo propargylaminoisoxazoles as fungicides” (Shionogi & Co., Ltd., priority 1982, dated 1986):
≈ marks a conversion by molar mass, not a printed value.

Assays:
Candida albicans M-9 = assay: Test A-1 Anti-fungal Activity (MIC), microwell dilution; type: cell-based; conditions: M9, C. albicans M-9, in vitro, 1×10^5 cells/ml
Method: (§1) Test A-1 Anti-fungal Activity (MIC)
(§2) The concentration of the test cells was 1×10^5 cells/ml and the activity was measured by a microwell dilution method. The structure of the test compounds is referred to in the Examples.

Aspergillus fumigatus = assay: as above; type: cell-based; conditions: in vitro, 1×10^5 cells/ml
Method: as §1, §2

Sclerotinia sclerotiorum = assay: Test B-2 Control Test to Sclerotinia Rot of Cucumber; type: in vivo; conditions: 48 h, 2 days, read-out: Percent Disease Control
Method: Test B-2 Control Test to Sclerotinia Rot of Cucumber
Cucumber seedlings were sprayed with 2.5 ml of a test solution in the same manner as in Test B-1. Afterthe spraying, the seedlings were kept at 25°-26° C. for a day and three disks of 4 mm in diameter containing mycelia of Sclerotinia sclerotiorum were put on a primary leaf and then 10 μl of PD broth were dropped on the disks. The treated seedlings were kept ina greenhouse (20° C.) for 2 days and then the diameters of the disease spots were measured by a pair of slide callipers. [formula]

[1] = system: Colletotrichum lagenarium; assay: Test B-4 Control Test to Anthracnose of Cucumber; type: in vivo; conditions: 500 ppm, 3 + 3 days
Method: Test B-4 Control Test to Anthracnose of Cucumber Each cucumber seedling was sprayed with 2.5 ml of a test solution in the same manner as in Test B-1. After the spraying, the seedlings were kept at 25°-26° C. for a day and were inoculated with five filter-paper disks of 6 mm in diameter saturated with a conidium suspension of Colletotrichum lagenarium at a concentration of 1×10^6 conidia/ml. The treated seedlings were kept in a greenhouse (25° C.) for 3 days and further kept at below 25° C. for 3 days. Standard of Evaluation The same as noted in Test B-3.

Sphaerotheca fuliginea = assay: Test B-5 Control Test to Powdery Mildew of Cucumber; type: in vivo; conditions: 500 ppm, 2 weeks
Method: Test B-5 Control Test to Powdery Mildew of Cucumber
Each cucumber seedling was sprayed with 2.5 ml of a test solution. The seedlings were kept at 25°-26° C. for 1 day after the spraying and then sprayed with a conidium (1×10^5 conidia/ml) of Sphaerotheca fuliginea in a 100 ppm spreader solution (containing 20% polyoxyethylene glycol alkyl phenol ether and 12% lignin sulfonate) at a rate of 25 ml/20 cups.
The seedlings were kept in a greenhouse (25° C.) for 2 weeks and then observed.
Standard of Evaluation [formula]
(§3) The percent disease control was calculated in the same manner as in Test B-1.

[2] = system: Pseudoperonospora cubensis; assay: Test B-3 Control Test to Downy Mildew of Cucumber; type: in vivo; conditions: 500 ppm, 7 days
Method: Test B-3 Control Test to Downy Mildew of Cucumber
Each cucumber seedling was sprayed with 2.5 ml of a test solution in the same manner as in Test B-1. After the spraying, the seedlings were kept at 25°-26° C. for a day and a zoosporangium suspension or Pseudoperonospora cubensis was inoculated at a rate of five spots per leaf on a primary leaf. The treated seedlings were kept in a greenhouse for 7 days and then observed.
(2) Slight disease at the inoculation spot . . . X5
(3) A disease spot in the same size as the inoculation spot (without spreading) . . . x10
(4) A disease spot larger than the inoculation spot . . . x20
Disease degree and percent disease control were calculated in the same manner as in Test B-1.

Trichophyton asteroides [3] = assay: Test A-1 Anti-fungal Activity (MIC), microwell dilution; type: cell-based; conditions: T. asteroides, in vitro, 1×10^5 cells/ml
Method: as §1
The following results (Table 1) were obtained in an anti-fungal activity test in vitro against Aspergillus fumigatus, Candida albicans M-9 and Trichophyton asteroides. The concentration of the test cells was 1×10^5 cells/ml and the activity was measured by a microwell dilution method. The structure of the test compounds is referred to in the Examples.

Botrytis cinerea = assay: Test B-1 Control Test of Botrytis Rot (Gray Mold) of Cucumber; type: in vivo; conditions: 500 ppm, 3 days
Method: Test B-1 Control Test of Botrytis Rot (Gray Mold) of Cucumber Seedlings of Cucumber (Cultivar: Matsukaze) were planted and grown in soil in vinyl-chloride cups of 9 cm in diameter in a greenhouse. […] The treated cucumbers were kept for 3 days in a greenhouse (20° C.) and then disease degrees were counted. Standard of Evaluation […] (2) A slight soaked lesion on the reverse of the test leaf . . . × 5 (3) A slight fade of the leaf . . . × 10 (4) The inoculated part was faded and the fading expanded erosively . . . × 20 [formula]

Candida albicans = assay: Test A-2 Anti-fungal Activity (MCC); conditions: 48 h, read-out: MCC (Minimal Cidal Concentration)
Method: (§12) Some MCC (Minimal Cidal Concentration) values (Table 1) were obtained against Candida albicans and Trichophyton asteroides by the following method. After the MIC value was obtained by the microwell method, a loopful amount was picked up from the medium in which no growth of the fungus was observed, inoculated into a Subrouraud's glucose agar medium and incubated at 28° C. for 2 days in the case of C. albicans and for 7 days in the case of T. asteroides.

Trichophyton asteroides [4] = assay: Test A-2 Anti-fungal Activity (MCC); conditions: 168 h, read-out: MCC (Minimal Cidal Concentration)
Method: as §12

Mycoplasma gallisepticum = assay: minimum inhibition concentration; type: cell-based; conditions: Mycoplasmoides gallisepticum, one range for the listed compounds
Mycoplasma hyopneumonia = assay: growth inhibition of a swine enzootic pneumonia-causative bacteria; type: cell-based; conditions: one range for the listed compounds, read-out: concentration inhibiting the growth
Pyricularia oryzae = type: in vivo; conditions: 500 ppm; rice plant blast, 24 hours + 7 days
Pythium aphanidermatum = assay: Test B-6 Control Test to Damping-off of Cucumber; type: in vivo; conditions: P*, 500 ppm, soil drench, 1 week
Method: (§4) Test B-6 Control Test to Damping-off of Cucumber
(§5) Twenty cucumber seeds were sown into sterilized soil (150 ml) in a pot of 9 cm in diameter. The fungi, Phythium aphanidermatum, Fusarium oxysporum and Rhizoctonia solani were cultured on a wheat bran medium for 5 days and an additional 2 days thereafter were mixed with sterilized soil. The surface of the sown spots was covered with the above culture medium. A test solution (30 ml) at a prescribed concentration was poured into each pot. The pots were kept in a greenhouse (28° C.) for 1 week in the case of Pythium and Rhizoctonia and for 2 weeks in the case of Fusarium.
(§6) The disease degree was observed and percent disease degree was calculated by the following formula: […]
(§7) (1) No germination . . . x 4
(§8) (2) Germed but withered . . . x 3
(§9) (3) Disordered in 1/3 or more . . . x 2
(§10) (4) Disordered in less than 1/3 . . . x 1
(§11) (5) Not damaged . . . x 0 [formula]
as §3

Fusarium oxysporum = assay: Test B-6 Control Test to Damping-off of Cucumber; type: in vivo; conditions: F*, 500 ppm, soil drench, 2 weeks
Method: as §4, §5, §6, §7, §8, §9, §10, §11, §3

Rhizoctonia solani = assay: Test B-6 Control Test to Damping-off of Cucumber; type: in vivo; conditions: R*, 500 ppm, soil drench, 1 week
Method: as §4, §5, §6, §7, §8, §9, §10, §11, §3

Row | Structure (SMILES) | MIC (Candida albicans M-9) [µg/mL] | MIC (Aspergillus fumigatus) [µg/mL] | MIC (Trichophyton asteroides [3]) [µg/mL] | Percent Disease Control (Botrytis cinerea) [%] | also measured
1 | CCc1noc(N(C)CC#CI)c1Cl [Comp. 1, 3-ethyl-4-chloro-5-(N-methyl-N-3-iodo-2-propynyl)-aminoisoxazole] | 3.1 (≈ 9.55 µM) | 6.3 (≈ 19.4 µM) | 0.8 (≈ 2.46 µM) | 100 | pest or weed control at 500 ppm (Sclerotinia sclerotiorum): 100%; Percent Disease Control [1]: 100%; Percent Disease Control (Sphaerotheca fuliginea): 100%; Percent Disease Control [2]: 100%
2 | Clc1c(-c2ccccc2)noc1NCC#CI [Comp. 2, 3-phenyl-4-chloro-5-(3-iodo-2-propynyl)aminoisoxazole] | 0.1 (≈ 0.279 µM) | 6.2 (≈ 17.3 µM) | 0.4 (≈ 1.12 µM) |  | 
3 | Cc1cc(N(C)CC#CI)on1 [Comp. 3] | 0.4 (≈ 1.45 µM) | 0.8 (≈ 2.9 µM) | 1.6 (≈ 5.8 µM) |  | 
4 | CCN(CC#CI)c1cc(C)no1 [Comp. 4] | 0.8 (≈ 2.76 µM) | 1.6 (≈ 5.52 µM) | 1.6 (≈ 5.52 µM) |  | MFC (Candida albicans): 25 µg/mL (≈ 86.2 µM); MFC (Trichophyton asteroides [4]): 3.1 µg/mL (≈ 10.7 µM)
5 | CCc1cc(N(C)CC#CI)on1 [Comp. 5] | 0.8 (≈ 2.76 µM) | 1.6 (≈ 5.52 µM) | 1.6 (≈ 5.52 µM) | 100 | pest or weed control at 500 ppm (Sclerotinia sclerotiorum): 100%; Percent Disease Control [2]: 95.0%; MIC (Mycoplasma gallisepticum): 6.25 to 12.5 µg/mL (≈ 21.5 to 43.1 µM)
6 | CC(C)c1cc(N(C)CC#CI)on1 [Comp. 6] | 0.8 (≈ 2.63 µM) | 1.6 (≈ 5.26 µM) | 1.6 (≈ 5.26 µM) |  | pest or weed control at 500 ppm (Sclerotinia sclerotiorum): 100%; MFC (Candida albicans): 25 µg/mL (≈ 82.2 µM); MFC (Trichophyton asteroides [4]): 3.1 µg/mL (≈ 10.2 µM); Percent Disease Control [1]: 100%
7 | CN(CC#CI)c1cc(C2CC2)no1 [Comp. 8] | 0.8 (≈ 2.65 µM) | 1.6 (≈ 5.3 µM) | 3.1 (≈ 10.3 µM) |  | 
8 | CN(CC#CI)c1cc(C2CCCCC2)no1 [Comp. 9] |  |  |  |  | Percent Disease Control [2]: 100%; MIC (Mycoplasma hyopneumonia): 3.13 to 12.5 µg/mL (≈ 9.09 to 36.3 µM)
9 | CN(CC#CI)c1cc(-c2ccco2)no1 [Comp. 10] | 0.8 (≈ 2.44 µM) | 1.6 (≈ 4.88 µM) | 0.8 (≈ 2.44 µM) |  | 
10 | CN(CC#CI)c1cc(-c2cccs2)no1 [Comp. 11] | 0.8 (≈ 2.32 µM) | 3.1 (≈ 9.01 µM) | 1.6 (≈ 4.65 µM) | 100 | MFC (Candida albicans): 12.5 µg/mL (≈ 36.3 µM); MFC (Trichophyton asteroides [4]): 1.6 µg/mL (≈ 4.65 µM)
11 | CN(CC#CI)c1cc(-c2ccccc2)no1 [Comp. 13] | 3.1 (≈ 9.17 µM) | 3.1 (≈ 9.17 µM) | 3.1 (≈ 9.17 µM) |  | Percent Disease Control (Pyricularia oryzae): 99%; MIC (Mycoplasma hyopneumonia): 3.13 to 12.5 µg/mL (≈ 9.26 to 37 µM)
12 | CN(CC#CI)c1onc2c1CCCC2 [Comp. 15] |  |  |  | 100 | MIC (Mycoplasma hyopneumonia): 3.13 to 12.5 µg/mL (≈ 9.9 to 39.5 µM)
13 | CCN(CC#CI)c1onc(C)c1C [Comp. 21] | 1.6 (≈ 5.26 µM) | 1.6 (≈ 5.26 µM) | 1.6 (≈ 5.26 µM) |  | 
14 | Cc1noc(N(C)CC#CI)c1Cl [Comp. 24] | 0.2 (≈ 0.644 µM) | 0.8 (≈ 2.58 µM) | 0.4 (≈ 1.29 µM) | 100 | pest or weed control at 500 ppm (Sclerotinia sclerotiorum): 100%; MFC (Candida albicans): 12.5 µg/mL (≈ 40.3 µM); MFC (Trichophyton asteroides [4]): 3.1 µg/mL (≈ 9.98 µM); Percent Disease Control (Sphaerotheca fuliginea): 100%; Percent Disease Control (Pythium aphanidermatum): 100%; Percent Disease Control (Fusarium oxysporum): 93%; Percent Disease Control (Rhizoctonia solani): 100%
15 | CC(C)c1noc(N(C)CC#CI)c1Cl [Comp. 26] | 6.3 (≈ 18.6 µM) | 50 (≈ 148 µM) | 1.6 (≈ 4.73 µM) |  | Percent Disease Control [1]: 100%; Percent Disease Control (Sphaerotheca fuliginea): 100%; Percent Disease Control [2]: 100%
16 | CN(CC#CI)c1onc(-c2ccccc2)c1Cl [Comp. 27] |  |  |  |  | Percent Disease Control (Pyricularia oryzae): 100%
17 | Clc1ccccc1C(c1ccccc1)(c1ccccc1)n1ccnc1 [Ref. Comp., Clotrimazole, reference compound] | 6.3 (≈ 18.3 µM) | 12.5 (≈ 36.2 µM) | 0.2 (≈ 0.58 µM) |  | MFC (Candida albicans): > 100 µg/mL; MFC (Trichophyton asteroides [4]): 6.3 µg/mL (≈ 18.3 µM)
18 | Cc1cc(N(C)CC#CI)no1 [compound 32, 3-(N-methyl-N-3-iodo-2-propynyl)amino-5-methylisoxazole] | 1.6 (≈ 5.8 µM) | 1.6 (≈ 5.8 µM) | 3.1 (≈ 11.2 µM) | 100 | pest or weed control at 500 ppm (Sclerotinia sclerotiorum): 100%; Percent Disease Control (Sphaerotheca fuliginea): 100%; Percent Disease Control (Pyricularia oryzae): 98%; Percent Disease Control (Pythium aphanidermatum): 100%; Percent Disease Control (Fusarium oxysporum): 50%; Percent Disease Control (Rhizoctonia solani): 100%
19 | Cc1onc(N(C)CC#CI)c1Cl [compound 33, 3-(N-methyl-N-3-iodo-2-propynyl)amino-4-chloro-5-methylisoxazole] | 1.6 (≈ 5.15 µM) | 3.1 (≈ 9.98 µM) | 0.8 (≈ 2.58 µM) |  | pest or weed control at 500 ppm (Sclerotinia sclerotiorum): 100%; Percent Disease Control [2]: 100%
20 | Cc1onc(NCC#CI)c1Cl [compound 34, 3-(3-iodo-2-propynyl)-amino-4-chloro-5-methylisoxazole] |  |  |  | 100 | Percent Disease Control [1]: 100%; Percent Disease Control [2]: 100%; MIC (Mycoplasma hyopneumonia): 3.13 to 12.5 µg/mL (≈ 10.6 to 42.2 µM)
21 | Cc1c(N(C)CC#CI)noc1-c1ccccc1 [compound 36] |  |  |  |  | Percent Disease Control (Pyricularia oryzae): 90%
22 | Cc1noc(C)c1NCC#CI [compound 38, 3,5-dimethyl-4-(3-iodo-2-propynylamino)isoxazole] | 0.8 (≈ 2.9 µM) | 3.1 (≈ 11.2 µM) | 0.8 (≈ 2.9 µM) |  | 
